Reference: EP4711368A1 (priority 2023, dated 2024)
Read-outs that look alike come from different tables or passages of the source.

Key:
[1] = test system: SD rats; assay: animal or person; type: in vivo; conditions: iv; for Minimal effective analgesic dose / Minimal effective anesthetic dose / Onset time / Righting feflex duration / Sedation Duration: rat, in vivo; for minimal effective dose: Rattus norvegicus
[2] = test system: SD rats; conditions: rat, in vivo; for MLD: iv; as to Onset time: test concentration or dose not given here; as to Righting feflex duration: test concentration or dose not given here; as to Sedation Duration: test concentration or dose not given here
[3] = read-out: Minimal effective analgesic dose
[4] = read-out: Minimal effective anesthetic dose

SMILES: CC(=O)OCCC1N=C(c2ccccn2)c2cc(Br)ccc2-n2c(C)cnc21 (stereo not drawn) [Compound 145]
- Minimal effective analgesic dose [1]: 20 mg/kg
- Minimal effective anesthetic dose [1]: 5.0 mg/kg
- Onset time [1]: 0.2 to 0.4 min
- Righting feflex duration [1]: 0.5 to 14.3 min
- Sedation Duration [1]: 33.1 to 88.2 min
- TI [2]: 6.0
- MLD [2]: 30 mg/kg

SMILES: COC(=O)CC1N=C(c2ccccn2)c2cc(Br)ccc2N(C)C1=O (stereo not drawn) [Compound 113]
- Minimal effective anesthetic dose [1]: 15.0 mg/kg
- Onset time [1]: 0.2 to 0.3 min
- Righting feflex duration [1]: 0.7 to 29.5 min
- Sedation Duration [1]: 20.6 to 77.7 min
- TI [2]: 2.7
- MLD [2]: 40 mg/kg

SMILES: CN1C(=O)N(CC(=O)OC2(C)COC2)N=C(c2ccccn2)c2cc(Br)ccc21 [Compound 253]
- minimal effective dose [1, 3]: 20 mg/kg
- minimal effective dose [1, 4]: 10 mg/kg
- Onset time [1]: 0.87 to 0.88 min
- Righting feflex duration [1]: 1.38 to 11.07 min
- Sedation Duration [1]: 10.13 to 31.28 min
- TI ([2]; SD): 3
- MLD ([2]; SD): 30 mg/kg

SMILES: COC(=O)CCC1N=C(c2ccccn2)c2cc3nc(C(F)(F)F)sc3cc2N(C)C1=O (stereo not drawn) [Compound 180]
- MLD [2]: 40 mg/kg

SMILES: CCC(CC)OC(=O)CN1N=C(c2ccccn2)c2cc(Br)ccc2N(C)C1=O [Compound 247]
- minimal effective dose [1, 3]: 20 mg/kg
- minimal effective dose [1, 4]: 20 mg/kg
- Onset time [1]: 0.28 min
- Righting feflex duration [1]: 30.15 min
- Sedation Duration [1]: 88.25 min
- TI ([2]; SD): 1.5
- MLD ([2]; SD): 30 mg/kg

SMILES: CC(C)OC(=O)CCN1N=C(c2ccccn2)c2cc(Br)ccc2N(C)C1=O [Compound 260]
- minimal effective dose [1, 3]: 40 mg/kg
- minimal effective dose [1, 4]: 40 mg/kg
- Onset time [1]: 0.12 min
- Righting feflex duration [1]: 7.52 min
- Sedation Duration [1]: 55.52 min
- TI ([2]; SD): 1.4
- MLD ([2]; SD): 55 mg/kg

SMILES: CN1C(=O)C(CO)N=C(c2ccccn2)c2cc(Br)ccc21 (stereo not drawn) [Compound 37]
- Minimal effective anesthetic dose [1]: 5.0 mg/kg
- Onset time [1]: 0.3 to 0.6 min
- Righting feflex duration [1]: 0.7 to 5.8 min
- Sedation Duration [1]: 15.3 to 21.3 min
- TI [2]: >2.0
- MLD [2]: >10 mg/kg

SMILES: CC(C)OC(=O)CC1N=C(c2ccccn2)c2cc(Br)ccc2N(C)C1=O (stereo not drawn) [Compound 114]
- Minimal effective anesthetic dose [1]: 0.5 mg/kg
- Onset time [1]: 0.4 to 1.1 min
- Righting feflex duration [1]: 0.8 to 27.6 min
- Sedation Duration [1]: 16.5 to 140.3 min
- TI [2]: 40.0
- MLD [2]: 20 mg/kg

SMILES: CC(=O)C(C)(C)OC(=O)CCC1N=C(c2ccccn2)c2cc(Br)ccc2N(C)C1=O (stereo not drawn) [Compound 18]
- Minimal effective anesthetic dose [1]: 0.5 mg/kg
- Onset time [1]: 0.2 to 0.9 min
- Righting feflex duration [1]: 0.8 to 4.2 min
- Sedation Duration [1]: 4.5 to 10.7 min
- TI [2]: >2.4
- MLD [2]: >1.2 mg/kg

SMILES: CC(C)OC(=O)OCCN1N=C(c2ccccn2)c2cc(Br)ccc2N(C)C1=O [Compound 302]
- MLD ([2]; SD): 20 mg/kg

SMILES: Brc1ccc2c(c1)C(c1ccccn1)=NN1CCN=C1N2 [Compound 323]
- minimal effective dose [1, 3]: 30 mg/kg
- minimal effective dose [1, 4]: 30 mg/kg
- Onset time [1]: 0.95 to 1.07 min
- Righting feflex duration [1]: 13.12 to 21.08 min
- TI ([2]; SD): >1.3
- MLD ([2]; SD): >40 mg/kg

SMILES: Cc1cnc2n1-c1ccc(Br)cc1C(c1ccccn1)=NC2COS(=O)c1ccccc1 (stereo not drawn) [Compound 195]
- Minimal effective analgesic dose [1]: 21.8 mg/kg
- Minimal effective anesthetic dose [1]: 7.5 mg/kg
- Onset time [1]: 0.2 to 0.5 min
- Righting feflex duration [1]: 5.3 to 76.6 min
- Sedation Duration [1]: 78.5 to 195.4 min
- TI [2]: >2.9
- MLD [2]: >21.8 mg/kg

SMILES: CC(C)C(=O)OCCN1N=C(c2ccccn2)c2cc(Br)ccc2N(C)C1=O [Compound 298]
- minimal effective dose [1, 4]: 10 mg/kg
- Onset time [1]: 0.22 to 0.38 min
- Righting feflex duration [1]: 6.73 to 8.97 min
- Sedation Duration [1]: 17.03 to 30.07 min
- TI ([2]; SD): 2
- MLD ([2]; SD): 20 mg/kg

SMILES: CC(=O)OC1N=C(c2ccccn2)c2cc(Br)ccc2N(C)C1=O (stereo not drawn) [Compound 164]
- Minimal effective anesthetic dose [1]: 5.0 mg/kg
- Onset time [1]: 0.2 to 1.0 min
- Righting feflex duration [1]: 1.2 to 50.4 min
- Sedation Duration [1]: 116.7 to 284.0 min
- TI [2]: 8.0
- MLD [2]: 40 mg/kg

SMILES: CC(=O)C(C)(C)OC(=O)CCC1N=C(c2ccccn2)c2cc(Br)ccc2-n2c(C)cnc21 (stereo not drawn) [Compound 6]
- Minimal effective anesthetic dose [1]: 1.3 mg/kg
- Onset time [1]: 0.3 to 0.8 min
- Righting feflex duration [1]: 0.6 to 3.4 min
- Sedation Duration [1]: 4.0 to 10.7 min
- TI [2]: >3.8
- MLD [2]: >5 mg/kg

SMILES: COc1nonc1CCN1N=C(c2ccccn2)c2cc(Br)ccc2N(C)C1=O [Compound 273]
- minimal effective dose [1, 4]: 10 mg/kg
- Onset time [1]: 0.25 to 0.27 min
- Righting feflex duration [1]: 2.38 to 9.68 min
- Sedation Duration [1]: 43.97 to 44.82 min
- TI ([2]; SD): >2
- MLD ([2]; SD): >20 mg/kg

SMILES: CCn1nnc(CCN2N=C(c3ccccn3)c3cc(Br)ccc3N(C)C2=O)n1 [Compound 265]
- MLD [2]: 40 mg/kg

SMILES: C=CC(C)OC(=O)CN1N=C(c2ccccn2)c2cc(Br)ccc2-n2c(C)cnc21 (stereo not drawn) [Compound 310]
- minimal effective dose [1, 3]: 20 mg/kg
- minimal effective dose [1, 4]: 10 mg/kg
- Onset time [1]: 0.15 to 0.52 min
- Righting feflex duration [1]: 2.97 to 38.32 min
- Sedation Duration [1]: 138.40 to 240 min
- TI ([2]; SD): 4
- MLD ([2]; SD): 40 mg/kg

SMILES: CC[C@H](C)OC(=O)CN1N=C(c2ccccn2)c2cc(Br)ccc2N(C)C1=O [Compound 242]
- minimal effective dose [1, 4]: 7.5 mg/kg
- Onset time [1]: 0.28 to 0.55 min
- Righting feflex duration [1]: 5.05 to 18.42 min
- Sedation Duration [1]: 19.98 to 46.92 min
- TI ([2]; SD): 4
- MLD ([2]; SD): 30 mg/kg

SMILES: C#C[C@H](C)OC(=O)CN1N=C(c2ccccn2)c2cc(Br)ccc2N(C)C1=O [Compound 252]
- minimal effective dose [1, 3]: 30 mg/kg
- minimal effective dose [1, 4]: 20 mg/kg
- Onset time [1]: 0.43 min
- Righting feflex duration [1]: 2.92 to 5.05 min
- Sedation Duration [1]: 9.95 to 10.58 min
- TI ([2]; SD): 2
- MLD ([2]; SD): 40 mg/kg

SMILES: Cc1cnc2n1-c1ccc(Br)cc1C(c1ccccn1)=NC2COC(=O)c1ccccc1 (stereo not drawn) [Compound 191]
- Minimal effective analgesic dose [1]: 20 mg/kg
- Minimal effective anesthetic dose [1]: 5.0 mg/kg
- Onset time [1]: 0.45 to 0.53 min
- Righting feflex duration [1]: 0.7 to 12.8 min
- Sedation Duration [1]: 53.5 to 155.3 min
- TI [2]: 6.8
- MLD [2]: 34.0 mg/kg

SMILES: CN1C(=O)C(CCC(=O)OC2(C)COC2)N=C(c2ccccn2)c2cc(Br)ccc21 (stereo not drawn) [Compound 14]
- Minimal effective anesthetic dose [1]: 0.5 mg/kg
- Onset time [1]: 0.2 to 0.7 min
- Righting feflex duration [1]: 0.6 to 3.2 min
- Sedation Duration [1]: 3.5 to 7.0 min
- TI [2]: >2
- MLD [2]: >1 mg/kg

SMILES: CCC(=O)CN1N=C(c2ccccn2)c2cc(Br)ccc2N(C)C1=O [Compound 281]
- MLD ([2]; SD): 40 mg/kg

SMILES: CCOC(=O)C(C(C)C)N1N=C(c2ccccn2)c2cc(Br)ccc2N(C)C1=O (stereo not drawn) [Compound 278]
- MLD [2]: 40 mg/kg

SMILES: CN(C)C(=O)CN1N=C(c2ccccn2)c2cc(Br)ccc2N(C)C1=O [Compound 258]
- MLD ([2]; SD): 40 mg/kg

SMILES: CN1C(=O)N(C[n+]2ccccc2)N=C(c2ccccn2)c2cc(Br)ccc21 [Compound 297]
- MLD ([2]; SD): 5 mg/kg

SMILES: Cc1cnc2n1-c1ccc(Br)cc1C(c1ccccn1)=NC2CCOCc1ccccc1 (stereo not drawn) [Compound 144]
- MLD [2]: 3.8 mg/kg

SMILES: Cc1c[n+]2c3n1-c1ccc(Br)cc1C(c1ccccn1)=NN3CC2 [Compound 321]
- MLD ([2]; SD): 10 mg/kg

SMILES: O=CN1CCN2N=C(c3ccccn3)c3cc(Br)ccc3N=C12 [Compound 322]
- MLD [2]: 34 mg/kg

SMILES: CC(C)C(=O)OC(CN1N=C(c2ccccn2)c2cc(Br)ccc2N(C)C1=O)C(C)C (stereo not drawn) [Compound 280]
- MLD ([2]; SD): 10 mg/kg

SMILES: C=CC1(OC(=O)CCN2N=C(c3ccccn3)c3cc(Br)ccc3N(C)C2=O)COC1 [Compound 262]
- MLD ([2]; SD): >20 mg/kg

SMILES: CCn1nnc(CN2N=C(c3ccccn3)c3cc(Br)ccc3N(C)C2=O)n1 [Compound 269]
- MLD ([2]; SD): >36 mg/kg

SMILES: CN1C(=O)N(CCOCc2ccccc2)N=C(c2ccccn2)c2cc(Br)ccc21 [Compound 285]
- MLD ([2]; SD): 15 mg/kg

SMILES: COC(=O)CCN1N=C(c2ccccn2)c2cc(Br)ccc2N(C)C1=O [Compound 259]
- MLD ([2]; SD): >20 mg/kg

SMILES: CCN(C(=O)OCN1N=C(c2ccccn2)c2cc(Br)ccc2N(C)C1=O)C(C)C [Compound 296]
- MLD ([2]; SD): 15 mg/kg

SMILES: CCn1nnnc1CN1N=C(c2ccccn2)c2cc(Br)ccc2N(C)C1=O [Compound 268]
- MLD [2]: 40 mg/kg

SMILES: CN1C(=O)N(CCC#N)N=C(c2ccccn2)c2cc(Br)ccc21 [Compound 263]
- MLD ([2]; SD): 40 mg/kg

SMILES: CN1C(=O)C(CCOC(=O)OC2COC2)N=C(c2ccccn2)c2cc(Br)ccc21 (stereo not drawn) [Compound 134]
- MLD [2]: 20 mg/kg

SMILES: COc1cc(CCN2N=C(c3ccccn3)c3cc(Br)ccc3N(C)C2=O)on1 [Compound 270]
- MLD ([2]; SD): 29.64 mg/kg

SMILES: CCOC(=O)C(C)N1N=C(c2ccccn2)c2cc(Br)ccc2N(C)C1=O (stereo not drawn) [Compound 276]
- MLD ([2]; SD): 20 mg/kg

SMILES: CCOC(=O)CN1N=C(c2ccccn2)c2cc(Br)ccc2N=C1SC [Compound 306]
- MLD [2]: 40 mg/kg

SMILES: CCC(CN1N=C(c2ccccn2)c2cc(Br)ccc2N(C)C1=O)OC(=O)C(C)C (stereo not drawn) [Compound 282]
- MLD [2]: 15 mg/kg

SMILES: CC(C)Oc1cc(CCN2N=C(c3ccccn3)c3cc(Br)ccc3N(C)C2=O)on1 [Compound 272]
- MLD ([2]; SD): 30 mg/kg

SMILES: C=CC(=O)OCCN1N=C(c2ccccn2)c2cc(Br)ccc2N(C)C1=O [Compound 301]
- MLD ([2]; SD): 27.4 mg/kg

SMILES: CCOc1cc(CCN2N=C(c3ccccn3)c3cc(Br)ccc3N(C)C2=O)on1 [Compound 271]
- MLD ([2]; SD): 30 mg/kg

SMILES: CN1C2=NCCN2N=C(c2ccccn2)c2cc(Br)ccc21 [Compound 324]
- MLD ([2]; SD): >15.7 mg/kg

SMILES: Cc1cnc2n1-c1ccc(Br)cc1C(c1ccccn1)=NN2CCOC(=O)OC(C)C [Compound 316]
- MLD ([2]; SD): 10 mg/kg

SMILES: CC(C)OC(=O)C(C)N1N=C(c2ccccn2)c2cc(Br)ccc2N(C)C1=O (stereo not drawn) [Compound 277]
- MLD ([2]; SD): 20 mg/kg

SMILES: CN1C(=O)N(CCOC(=O)CCCl)N=C(c2ccccn2)c2cc(Br)ccc21 [Compound 299]
- MLD ([2]; SD): 15 mg/kg

SMILES: CN1C(=O)N(CCc2cc(Br)no2)N=C(c2ccccn2)c2cc(Br)ccc21 [Compound 283]
- MLD ([2]; SD): 40 mg/kg
